# According to the METLIN SMRT retention time set (Domingo-Almenara et al. 2019):
# Test: gradient 5% acetonitrile 3 min, to 50% in 2 min, to 85% in 15 min, held 3 min, 100 µL/min
# Conditions: column: Zorbax Extend-C18 2.1 x 50 mm; eluents: water / acetonitrile, 0.1% formic acid
# Outline: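 Retention time was recorded from adduct peaks, which were picked computationally and each inspected manually. Pure standards ran in mixtures of ~100 molecules on HPLC coupled to a quadrupole time-of-flight mass spectrometer, in positive and negative ionization mode, through a Zorbax Extend-C18 column (2.1 × 50 mm, 1.8 μm) at 100 μL/min. Eluents were water and acetonitrile, each with 0.1% formic acid.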
row,Compound,RP-LC retention time
1,Oc1ccc(-c2nc3ncccn3c2Nc2cccc(C(F)(F)F)c2)cc1,764 s
2,CC(C)n1nc(CNC(=O)Cc2ccsc2)c2ccccc21,850 s
3,CCNc1nc(C)cc(N2CCN(S(=O)(=O)c3ccc(C(F)(F)F)cc3)CC2)n1,754 s
4,CC1=NS(=O)(=O)N(C)C=C1C(=O)OCc1noc(-c2ccccc2C)n1,987 s
5,O=C(c1ccc(S(=O)(=O)c2ccc(Cl)cc2)s1)N1CCN(c2ccccn2)CC1,702 s
6,CCCSc1nc2c(c(=O)n(C)c(=O)n2C)n1C,837 s
7,CC1CCCN(C(=O)CN2CCN(C)CC2)C1 (stereo not given),536 s
8,CNC(=O)c1cccn1Cc1ccc(F)cc1,791 s
9,O=C(c1ccccn1)N1CC(n2cc(COc3ccncc3)nn2)C1,566 s
10,CCn1c(C(=O)NCCCc2ccccc2)cc2c(-c3cccs3)nn(-c3ccccc3)c21,1280 s
11,O=C(Cn1nc(S(=O)(=O)c2ccccc2)ccc1=O)N1CCN(c2ccccc2F)CC1,870 s
12,O=S(=O)(c1ccc(Cl)cc1)N1CCc2nc(-c3ccc(Cl)cc3)ncc2C1,1270 s
13,Cc1ccc(Nc2c(-c3cc(Br)ccc3O)nc3ncccn23)cc1Cl,1170 s
14,CC(=O)N1CCCc2cc(S(=O)(=O)N3CCC(C(=O)N4CCN(C)CC4)CC3)ccc21,624 s
15,Cc1ccc(NC(=O)C2(c3ccc4c(c3)OC(F)(F)O4)CC2)nc1-c1cccc(C(=O)O)c1,1130 s
16,CCCNC(=O)c1ccc2cnn(C)c2c1,673 s
17,CC(C)(C)c1noc(-c2ccc(-n3cnc(C(=O)N4CCSCC4)c3)nc2)n1,963 s
18,COc1ccc(OC)c(-c2csc(-c3nnn(-c4ccccc4)c3N)n2)c1,1080 s
19,COc1ccc2c(c1)c1ncn(Cc3nc(C4CC4)no3)c(=O)c1n2Cc1c(F)cccc1Cl,1070 s
20,O=C(N[C@@H]1CN(Cc2ccccn2)C[C@H]1CO)C1(c2ccccc2)CC1,608 s
21,Cn1c(CNC(=O)c2cccc(N3CCNC(c4ccccc4)C3)n2)nc2ccccc21 (stereo not given),573 s

row,Compound,RP-LC retention time
1,CCC(c1cccs1)N1C(=O)[C@H]2CN(S(=O)(=O)c3cc(F)ccc3F)C[C@H]2C1=O (stereo not given in full),936 s
2,FC(F)(F)Oc1ccc(CN2CCN(c3cnn4cnnc4c3)CC2)cc1,611 s
3,N=C(N)SCCc1ccc(OCc2ccc([N+](=O)[O-])cc2)cc1,787 s
4,O=C(Nc1ccc(N2CCOCC2)cc1)C1CCCN(c2ccnc(-c3cccc(F)c3)n2)C1 (stereo not given),649 s
5,CC[C@H]1[C@@H]2C[C@H]3[C@@H]4N(C)c5ccccc5[C@]45C[C@@H]([C@H]2[C@H]5O)N3[C@@H]1O,652 s
6,Cc1nnsc1C(=O)N1CCC(C(=O)NCC(F)(F)F)CC1,614 s
7,COc1cccc(NC(=O)Cn2c3ccccc3n3c(=O)cc(-c4ccc(F)cc4)nc23)c1,961 s
8,Cc1nnc2cc(N3CCN(S(=O)(=O)c4ccccc4F)CC3)cnn12,674 s
9,Cc1ccc(CNc2ncccc2-c2nnc(-c3ccc(Cl)cc3)o2)o1,1350 s
10,COc1ccc(-c2nnc(SCc3ccc(Br)cc3)o2)c(OC)c1,1120 s
11,COc1ccc(-c2nc(-c3cccc(-c4ccn[nH]4)c3)no2)cc1,1000 s
12,Cc1nc2cc(-c3noc(Cc4ccc(Cl)cc4)n3)ccc2o1,1070 s
13,Cn1nc(-c2nc(C3CC3)no2)c2c1CCN(C(=O)c1ccco1)C2,744 s
14,CCCCS(=O)(=O)NCCc1noc(-c2ccccc2)n1,615 s
15,O=C(c1cnccn1)N1CCCC1c1nc(-c2cccc(C(F)(F)F)c2)no1 (stereo not given),798 s
16,Cn1cnc2cc(CNC(=O)c3ccc(F)cc3)ccc21,577 s
17,COc1ccc(NC(=O)[C@@H]2c3ccccc3C(=O)N3CCCC[C@@H]23)c(OC)c1,752 s
18,COc1ccc(-n2c(=O)n(C)c(=O)c3cc(C(=O)NCc4ccccc4OC)cnc32)cc1,859 s
19,Cc1ccccc1Nc1c(-c2cccc(Br)c2)nc2ccccn12,799 s
20,NC(=O)CCCCn1ccc(NC(N)=NCC(F)(F)F)n1,617 s
21,Cc1ccccc1N1CCN(c2nccn3nc(-c4ccccc4)cc23)CC1,1300 s

# The remaining lines, values ahead:
row,RP-LC retention time,Compound
1,732 s,COc1ccc(Cl)cc1S(=O)(=O)N1CCC(n2cnnc2C(C)C)CC1
2,577 s,CCNC(=O)Nc1cccnc1N1CCCCC1
3,653 s,CCOc1ccccc1CNC(=O)c1cc(NC(C)=O)cc2nc(C)ccc12
4,890 s,CCc1cc(C2CCCN2C(=O)Nc2ccc(Cl)cc2)on1 (stereo not given)
5,677 s,COc1cccc(C(O)CN2CCN(c3ccc(C)cc3)CC2)c1 (stereo not given)
6,891 s,CCNC(=O)N1CCCC(c2cccc(C(=O)NCC3CCCCC3)c2)C1 (stereo not given)
7,728 s,CS(=O)(=O)N1CCC(Cc2ccc(C(=O)O)cc2)CC1
8,857 s,O=C(CC1CCCCC1)N1CCN(c2ccc(=O)n(-c3ccccc3)n2)CC1
9,863 s,COc1ccc(OC)c(NC(=O)C2CCCN2S(=O)(=O)c2ccc3c(c2)CC(C)N3C(C)=O)c1 (stereo not given)
10,711 s,O=C(Cn1c(=O)c2cc(C3CC3)nn2c2ncccc21)NCc1cccs1
11,658 s,CCOC(=O)C(C)NC(=O)N1CCN(Cc2nc3cccnc3n2-c2cc(C)cc(C)c2)CC1 (stereo not given)
12,734 s,CC1=C(C(=O)Nc2cc3cn[nH]c3cc2F)C(c2ccc(C(F)(F)F)cc2)CC(=O)N1 (stereo not given)
13,895 s,COc1ccc(Cl)cc1NC(=O)N1CCC(n2cnc3cc(F)ccc3c2=O)CC1
14,637 s,O=C(NC1CCCC1)c1c2c(nc3ccccc13)CCC2
15,915 s,Cc1ccc(C)c(Cn2nc3ccc(S(=O)(=O)N4CCCC4)cn3c2=O)c1
16,785 s,CCN(CC)C(=O)c1ccc2c(c1)nnn2CCNC(=O)Nc1ccc(Br)c(C)c1
17,1110 s,COC(=O)c1c(NC(=O)CCc2ccc(C)o2)sc(C)c1C
18,638 s,COc1ccc(OC)c(NC(=O)c2cc(S(=O)(=O)N3CCCC(C)C3)cn2C)c1 (stereo not given)
19,886 s,O=C(NCCOc1ccccc1)C(=O)c1c[nH]c2ccccc12
20,1020 s,Cc1ccc(Cn2nc3ccc(S(=O)(=O)N4CCCCC4)cn3c2=O)cc1C
21,579 s,CCC(=O)N1CCc2cc(N3CC(C(=O)NCc4cccnc4)CC3=O)ccc21 (stereo not given)
22,607 s,COc1nccc(N2CCC(CC(=O)NCc3cccc(OC)c3OC)CC2)n1
23,1060 s,CCc1ccc(C(C)NS(=O)(=O)c2c(C)c(-c3nnc(C4CCC4)o3)n(C)c2C)cc1 (stereo not given)
24,562 s,CN(C)CC1CN(C(=O)c2ccc3c(c2)OCO3)CC12CCOCC2 (stereo not given)

row,RP-LC retention time,Compound
1,649 s,COc1ccc(C(=O)NCCc2nc3cccnc3n2C(C)C)cc1
2,944 s,O=C(NCCc1csc(-c2ccc(F)cc2)n1)Oc1ccccc1
3,617 s,Cc1cc(F)ccc1NC(=O)Cn1c(N)nc(C)c(C)c1=O
4,1180 s,CCc1ccc(-c2ccc(SCC(=O)Nc3cc(Cl)ccc3OC)nn2)cc1
5,954 s,CC1CCN(C(=O)c2cn(-c3ccc(S(=O)(=O)N4CCCC(C)C4)cn3)cn2)CC1 (stereo not given)
6,1000 s,Cc1cc(C)n(Cc2nc(-c3ccc(NC(=O)C4CCCCC4)cc3)oc2C)n1
7,931 s,COc1ccc(C2CC(=O)N(c3ccc(F)cc3F)C(=O)C2)cc1
8,704 s,Cc1ccc(NC(=O)NCC2CCOCC2)cc1
9,856 s,COc1ccc(C)cc1NC(=O)Cn1nc(N2CCOCC2)c2ccccc2c1=O
10,662 s,CCOC(=O)C1=C(CNC2CCCCC2)NC(=O)NC1c1ccc(C)cc1 (stereo not given)
11,658 s,CCNC(=O)C1CCN(C(=O)Nc2ccc(NC(=O)Nc3ccccc3)cc2)CC1
12,860 s,CC(=O)N(Cc1nn(C)c2c1CN(S(=O)(=O)c1ccc(F)c(Cl)c1)CC2)c1ccccc1
13,775 s,CCc1ccc(S(=O)(=O)N2CCC3(CC2)NCCN=C3NCc2cccc(OC)c2)cc1
14,778 s,Fc1ccc(C2CCNCC2COc2ccc3c(c2)OCO3)cc1 (stereo not given)
15,827 s,O=C(Nc1ccc(Cl)cc1F)N1CCC(n2c(-c3ccco3)nc3cccnc32)C1 (stereo not given)
16,673 s,COc1ccccc1NC(=O)N1CCN(c2cc(C)nc(N3CCCC3)n2)CC1
17,897 s,COc1ccccc1CCN1CC(=O)N(c2ccc(C)c(C)c2)[C@@H]2CS(=O)(=O)C[C@@H]21
18,749 s,O=C1NCCCCCCN(C(=O)Nc2ccc3c(c2)OCCO3)[C@H]2CCC[C@@H]12
19,589 s,CC1CCCCN1CCCNC(=O)C1CCCN(c2ncnc3c2nc2n3CCCCC2)C1 (stereo not given)
20,948 s,O=C(NCc1ccc2c(c1)OCO2)c1nnc(-c2ccc(S(=O)(=O)N3CCCCC3)cc2)o1
21,717 s,Cc1cc(C)n(-c2cc(N3CCCC(C(=O)Nc4nnc(C)s4)C3)ncn2)n1 (stereo not given)
22,708 s,COc1ccc(NC(=O)COc2nc(C)nc3ccccc23)c(OC)c1
23,597 s,Cc1nnc(C2CCCCCN2C(=O)c2cn[nH]c2)o1 (stereo not given)
24,765 s,CCN1CCN(c2cc(-c3ccc(F)cc3)c3c(n2)CCCCCC3)CC1
